Source: patent publication US12453731B2, “Aniline-based WDR5 protein-protein interaction inhibitor, and preparation method and use thereof” (CHINA PHARMACEUTICAL UNIVERSITY, priority 2019, dated 2025)
Read-outs that look alike come from different tables or passages of the source.

Tests used:
[1] = test system: MV4-11 human acute mononuclear leukemia cells; assay: anti-proliferative activity against leukemia cells MV4-11; format: cell-based; settings: read-out: GI50 (MV-411)
Text: (§1) Some compounds of the present disclosure have also been tested for the antiproliferative activity against leukemia cells.

[2] = test system: methylation level of H3K4; assay: inhibition of the methylation level of H3K4 (methyltransferase activity); format: biochemical
MLL1-WDR5 PPI = MLL1-WDR5 PPI (Homo sapiens (Human), UniProt P61964); assay: fluorescent probe assay of MLL1-WDR5 protein-protein interaction inhibition; format: binding; settings: fluorescent probe based on MLL1 peptide, incubation 0.5 hrs, read-out: MLL1-WDR5 PPI inhibiting activity IC50
Procedure: In the present disclosure, a fluorescent molecular probe was constructed based on a MLL1 peptide fragment binding to WDR5, for use as a method for study on an aniline compound interfering with WDR5 protein-protein interaction, to determine an inhibition rate of the aniline compound at various concentrations, and then compute the IC50 value. Specific experimental steps: 20 μL of WDR5 protein, 20 μL of a fluorescent probe, and 20 μL of a compound of different concentration gradients were added to a 384-well plate respectively. After incubation for 0.5 hrs, the fluorescence was read on a multifunctional microplate reader at an excitation wavelength of 485 nm and an emission wavelength of 535 nm, to compute the mP value. The inhibition rate was computed as per the formula below, and then the IC50 value was computed using GraphPad software.

[3] = test system: Molm-13 human acute myeloid leukemia cells; assay: anti-proliferative activity against leukemia cells Molm-13; format: cell-based
Text: as §1

[4] = Homo sapiens, MV4-11, MV4-11 cells
[5] = Homo sapiens, MOLM-13, Molm-13 cells

Structure (SMILES): Cc1c(F)c(N)cc(C(=O)Nc2cc(-c3ccc(N)cc3)ccc2N2CCN(C)CC2)c1Cl [DDO-2084, reference compound]
- GI50 ([1]; MV4-11 cells): 17.7 ± 2.3 µM
- Whether the methylation level of H3K4 was inhibited [2]: Yes
- IC50 (MLL1-WDR5 PPI): 338 µM

Structure (SMILES): CN1CCN(c2ccc([N+](=O)[O-])cc2Nc2cc(Cl)ncn2)CC1 [Example 2, 6-chloro-N-(2-(4-methylpiperazin-1-yl)-5-nitrophenyl)pyrimidine-4-amine]
- IC50 (MLL1-WDR5 PPI): 10.3 µM

Structure (SMILES): CN1CCN(c2ccc([N+](=O)[O-])cc2Nc2ncnc(Cl)c2N)CC1 [Example 7, 6-chloro-N^4-(2-(4-methylpiperazin-1-yl)-5-nitrophenyl)pyrimidine-4,5-diamine]
- IC50 (MLL1-WDR5 PPI): 2.66 µM

Structure (SMILES): CN1CCN(c2ccc(-c3ccc(C(=O)N4CCOCC4)cc3)cc2Nc2ncnc(Cl)c2N)CC1 [Example 23, (3″-((5-amino-6-chloropyrimidin-4-yl)amino)-4-(4-methylpiperazin-1-yl)-[1,1′-biphenyl]-4-yl)(morpholino)methanone]
- GI50 [1, 4]: 16.7 µM
- GI50 [3, 5]: 23.4 µM
- Whether the methylation level of H3K4 was inhibited [2]: Yes
- IC50 (MLL1-WDR5 PPI): 0.186 µM

Structure (SMILES): CN1CCN(c2ccc(-c3ccc(C(=O)NCCN4CCOCC4)cc3)cc2Nc2ncnc(Cl)c2N)CC1 [Example 24, 3″-((5-amino-6-chloropyrimidin-4-yl)amino)-4″-(4-methylpiperazin-1-yl)-N-(2-morpholinoethyl)-[1,1′-biphenyl]-zole-4-carboxamide]
- GI50 [1, 4]: 11 µM
- GI50 [3, 5]: 17.6 µM
- Whether the methylation level of H3K4 was inhibited [2]: Yes
- IC50 (MLL1-WDR5 PPI): 0.183 µM

Structure (SMILES): CN1CCN(c2ccc(-c3ccc(C(=O)NCCCN4CCOCC4)cc3)cc2Nc2ncnc(Cl)c2N)CC1 [Example 25, 3″-((5-amino-6-chloropyrimidin-4-yl)amino)-4″-(4-methylpiperazin-1-yl)-N-(3-morpholinopropyl)-[1,1′-biphenyl]-zole-4-carboxamide]
- GI50 [1, 4]: 24.9 µM
- GI50 [3, 5]: 20.8 µM
- Whether the methylation level of H3K4 was inhibited [2]: Yes
- IC50 (MLL1-WDR5 PPI): 0.165 µM

Structure (SMILES): CN1CCN(c2ccc(-c3ccc(C(=O)N(C)C)cc3)cc2Nc2ncnc(Cl)c2N)CC1 [Example 26, 3″-((5-amino-6-chloropyrimidin-4-yl)amino)-N,N-dimethyl-4″-(4-methylpiperazin-1-yl)-[1,1′-biphenyl]-4-carboxamide]
- GI50 [1, 4]: 48.6 µM
- GI50 [3, 5]: 30.7 µM
- Whether the methylation level of H3K4 was inhibited [2]: Yes
- IC50 (MLL1-WDR5 PPI): 0.36 µM

Structure (SMILES): CN1CCN(C(=O)c2ccc(-c3ccc(N4CCN(C)CC4)c(Nc4ncnc(Cl)c4N)c3)cc2)CC1 [Example 27, (3″-((5-amino-6-chloropyrimidin-4-yl)amino)-4″-(4-methylpiperazin-1-yl)-[1,1′-biphenyl]-4-yl)(4-methylpiperazin-1-yl) methanone]
- GI50 [1, 4]: 39.2 µM
- GI50 [3, 5]: 34 µM
- Whether the methylation level of H3K4 was inhibited [2]: Yes
- IC50 (MLL1-WDR5 PPI): 0.217 µM

Structure (SMILES): CN(C)CCCNC(=O)c1ccc(-c2ccc(N3CCN(C)CC3)c(Nc3ncnc(Cl)c3N)c2)cc1 [Example 28, 3″-((5-amino-6-chloropyrimidin-4-yl)amino)-N-(3-(dimethylamino)propyl)-4″-(4-methylpiperazin-1-yl)-[1,1′-biphenyl]-4-carboxamide]
- GI50 [1, 4]: 29.7 µM
- GI50 [3, 5]: 24.3 µM
- Whether the methylation level of H3K4 was inhibited [2]: Yes
- IC50 (MLL1-WDR5 PPI): 0.27 µM

Structure (SMILES): CN1CCN(c2ccc(-c3ccc(C(=O)NCCN4CCCC4)cc3)cc2Nc2ncnc(Cl)c2N)CC1 [Example 29, 3″-((5-amino-6-chloropyrimidin-4-yl)amino)-4″-(4-methylpiperazin-1-yl)-N-(2-(pyrrolidin-1-yl)ethyl)-[11,1′-biphenylyl]-4-carboxamide]
- GI50 [1, 4]: 16.6 µM
- GI50 [3, 5]: 18.2 µM
- Whether the methylation level of H3K4 was inhibited [2]: Yes
- IC50 (MLL1-WDR5 PPI): 0.37 µM

Structure (SMILES): CN1CCN(c2ccc(-c3ccc(C(=O)NCCCO)cc3)cc2Nc2ncnc(Cl)c2N)CC1 [Example 30, 3″-((5-amino-6-chloropyrimidin-4-yl)amino)-N-(3-hydroxylpropyl)-4″-(4-methylpiperazin-1-yl)-[1,1′-biphenyl]-zole-4-carboxamide]
- GI50 [1, 4]: 27.3 µM
- GI50 [3, 5]: 32.6 µM
- Whether the methylation level of H3K4 was inhibited [2]: Yes
- IC50 (MLL1-WDR5 PPI): 0.31 µM

Structure (SMILES): CN1CCN(c2ccc(-c3ccc(NC(=O)c4ccccc4)cc3)cc2Nc2ncnc(Cl)c2N)CC1 [Example 37, N-(3″-((5-amino-6-chloropyrimidin-4-yl)amino)-4″-(4-methylpiperazin-1-yl)-[1,1′-biphenyl]-4-yl)benzenecarboxamide]
- Whether the methylation level of H3K4 was inhibited [2]: Yes
- IC50 (MLL1-WDR5 PPI): 5.55 µM

Structure (SMILES): COc1ccc(-c2ccc(N3CCN(C)CC3)c(Nc3ncnc(Cl)c3N)c2)cc1 [Example 42, 6-chloro-N-(4′-methoxyl-4-(4-methylpiperazin-1-yl)-[1,1′-biphenyl]-3-yl)pyrimidine-4,5-diamine]
- IC50 (MLL1-WDR5 PPI): 1.56 µM

Structure (SMILES): CN1CCN(c2ccc(-c3ccoc3)cc2Nc2ncnc(Cl)c2N)CC1 [Example 43, 6-chloro-N^4-(5-(furan-3-yl)-2-(4-methylpiperazin-1-yl)phenyl)pyrimidine-4,5-diamine]
- IC50 (MLL1-WDR5 PPI): 11.4 µM

Structure (SMILES): CN1CCN(c2ccc(-c3cncnc3)cc2Nc2ncnc(Cl)c2N)CC1 [Example 44, 6-chloro-N^4-(2-(4-methylpiperazin-1-yl)-5-(pyrimidine-5-yl)phenyl)pyrimidine-4,5-diamine]
- IC50 (MLL1-WDR5 PPI): 5.71 µM

Structure (SMILES): CN1CCN(c2ccc(-c3ccncc3)cc2Nc2ncnc(Cl)c2N)CC1 [Example 45, 6-chloro-N^4-(2-(4-methylpiperazin-1-yl)-5-(pyridin-4-yl)phenyl)pyrimidine-4,5-diamine]
- GI50 [1, 4]: 27.3 µM
- GI50 [3, 5]: 23.2 µM
- IC50 (MLL1-WDR5 PPI): 0.56 µM

Structure (SMILES): CN1CCN(c2ccc(-n3cc(C(=O)NCCCN4CCOCC4)nn3)cc2Nc2ncnc(Cl)c2N)CC1 [Example 48, 1-(3-((5-amino-6-chloropyrimidin-4-yl)amino)-4-(4-methylpiperazin-1-yl)phenyl)-N-(3-morpholinopropyl)-1H-1,2,3-triazole-4-carboxamide]
- IC50 (MLL1-WDR5 PPI): 1.09 µM

Structure (SMILES): CN1CCN(C(=O)c2cn(-c3ccc(N4CCN(C)CC4)c(Nc4ncnc(Cl)c4N)c3)nn2)CC1 [Example 49, (1-(3-((5-amino-6-chloropyrimidin-4-yl)amino)-4-(4-methylpiperazin-1-yl)phenyl)-1H-1,2,3-triazole-4-yl)(4-methylpiperazin-1-yl)methanone]
- IC50 (MLL1-WDR5 PPI): 1.25 µM

Structure (SMILES): CN1CCN(c2ccc(-n3cc(C(=O)N(C)C)nn3)cc2Nc2ncnc(Cl)c2N)CC1 [Example 50, 1-(3-((5-amino-6-chloropyrimidin-4-yl)amino)-4-(4-methylpiperazin-1-yl)phenyl)-N,N-dimethyl-1H-1,2,3-triazole-4-carboxamide]
- GI50 [1, 4]: 29.6 µM
- GI50 [3, 5]: 35.5 µM
- Whether the methylation level of H3K4 was inhibited [2]: Yes

Structure (SMILES): CN1CCN(c2ccc(-n3cc(C(=O)N(C)C)nn3)cc2Nc2ncnc(Cl)c2N)CC1 [Example 51, 1-(3-((5-amino-6-chloropyrimidin-4-yl)amino)-4-(4-methylpiperazin-1-yl)phenyl)-N,N-dimethyl-1H-1,2,3-triazole-4-carboxamide]
- GI50 ([1]; MV4-11 cells): 38 µM
- GI50 ([3]; Molm-13 cells): 39 µM
- Whether the methylation level of H3K4 was inhibited [2]: Yes

Structure (SMILES): CN(C)CCNC(=O)c1cn(-c2ccc(N3CCN(C)CC3)c(Nc3ncnc(Cl)c3N)c2)nn1 [Example 52, 1-(3-((5-amino-6-chloropyrimidin-4-yl)amino)-4-(4-methylpiperazin-1-yl)phenyl)-N-(2-(dimethylamino)ethyl)-1H-1,2,3-triazole-4-carboxamide]
- IC50 (MLL1-WDR5 PPI): 1.56 µM

Structure (SMILES): CN1CCN(c2ccc(-n3cc(C(=O)NCCN4CCCC4)nn3)cc2Nc2ncnc(Cl)c2N)CC1 [Example 53, 1-(3-((5-amino-6-chloropyrimidin-4-yl)amino)-4-(4-methylpiperazin-1-yl)phenyl)-N-(2-(pyrrolidin-1-yl)ethyl)-1H-1,2,3-triazole-4-carboxamide]
- IC50 (MLL1-WDR5 PPI): 1.61 µM

Structure (SMILES): Cc1c(-c2ccc(C(=O)N(C)C)cc2)ccc(N2CCN(C)CC2)c1Nc1ncnc(Cl)c1N [Example 65, 3″-((5-amino-6-chloropyrimidin-4-yl)amino)-N,N,2′-trimethyl-4″-(4-methylpiperazin-1-yl)-[1,1′-biphenyl]-4-carboxamide]
- IC50 (MLL1-WDR5 PPI): 0.671 µM

Structure (SMILES): COC(=O)c1ccc(-c2cc(Nc3ncnc(Cl)c3N)c(N3CCN(C)CC3)cc2F)cc1 [Example 66, Methyl 5′-((5-amino-6-chloropyrimidin-4-yl)amino)-2′-fluoro-4′-(4-methylpiperazin-1-yl)-[1,1′-biphenyl]-4-carboxylate]
- GI50 [1, 4]: 14.4 µM
- Whether the methylation level of H3K4 was inhibited [2]: Yes
- IC50 (MLL1-WDR5 PPI): 0.04 µM

Structure (SMILES): COC(=O)c1ccc(-c2cc(Nc3ncnc(Cl)c3N)c(N3CCN(C)CC3)cc2C)cc1 [Example 73, Methyl 5′-((5-amino-6-chloropyrimidin-4-yl)amino)-2′-methyl-4′-(4-methylpiperazin-1-yl)-[1,1′-biphenyl]-4-carboxylate]
- Whether the methylation level of H3K4 was inhibited [2]: Yes
- IC50 (MLL1-WDR5 PPI): 0.316 µM

Structure (SMILES): Cc1cc(N2CCN(C)CC2)c(Nc2ncnc(Cl)c2N)cc1-c1ccc(C(=O)NCCCN2CCOCC2)cc1 [Example 74, 5″-((5-amino-6-chloropyrimidin-4-yl)amino)-2′-methyl-4″-(4-methylpiperazin-1-yl)-N-(3-morpholinopropyl)-[1,11,1′-terphenyl]-4-carboxamide]
- Whether the methylation level of H3K4 was inhibited [2]: Yes
- IC50 (MLL1-WDR5 PPI): 0.465 µM
